The source of these data is PMC12352619, “Phylogeny-guided discovery of a promiscuous P450 macrocyclase for the production of diverse atropopeptides” (Chemical Science, 2025).

Data set [1] deals with A/Hamburg/05/2009 (H1N1pdm). In words: Screening of antiviral activity in MDCK II cells, H1N1pdm. In kind it is cell-based, influenza virus. Particulars: for antiviral effect: MOI 0.001, 48 h, CellTiter-Glo, normalized to aprotinin = 100%; for antiviral efficacy compared among the tested atropopeptides: statement made for the four strains together. (In general: Cellular ATP, detected with luciferase, serves as a proxy for viable cell number.)

The test system of data set [2] is A/Hessen/1/2003 (H3N2). Nature of the data set: Screening of antiviral activity in MDCK II cells, H3N2. In kind it is cell-based, influenza virus. Particulars: for antiviral effect: MOI 0.001, 48 h, CellTiter-Glo, normalized to aprotinin = 100%; for antiviral efficacy compared among the tested atropopeptides: statement made for the four strains together.
Data set [3] relates to MDCK II cells. Particulars: 100 µM, 48 h, CellTiter-Glo.
The subject of data set [4] is ICAM1. In kind it is cell-based, mouse. The note with it: b.End.3 cells, 1 µg/ml LPS, peptide 1 µg/ml added 8 hours after stimulation, for 60 h, flow cytometry, n = 6 technical replicates. (A flow cytometer gives signals particle by particle.)
Data set [5] has as its system VCAM1. The class given is cell-based, mouse. The note with it: b.End.3 cells, 1 µg/ml LPS, peptide 1 µg/ml added 8 hours after stimulation, for 60 h, flow cytometry, n = 6 technical replicates.
For data set [6], the system named is B/Malaysia/2506/2004 (Malaysia/B). Nature of the data set: Screening of antiviral activity in MDCK II cells, Malaysia/B. In kind it is cell-based, influenza virus. The note with it: for antiviral effect: MOI 0.001, 48 h, CellTiter-Glo, normalized to aprotinin = 100%; for antiviral efficacy compared among the tested atropopeptides: statement made for the four strains together.

In data set [7] the test system is B/Massachusetts/71 (Massachusetts/B). In words: Screening of antiviral activity in MDCK II cells, Massachusetts/B. In kind it is cell-based, influenza virus. The note with it: for antiviral effect: MOI 0.001, 48 h, CellTiter-Glo, normalized to aprotinin = 100%; for antiviral efficacy compared among the tested atropopeptides: statement made for the four strains together.

Regarding “H-WYIW-OH (also: sidechain bridge or staple (positions not given here)) [compound 1, scabrirubin CB-1, cyclic tetrapeptide from S. albus/pUWL-LauA + ScaB, C–N biaryl crosslink between Trp-1 and Trp-4]”, the antiviral effect result in data set [1], in data set [2], in data set [6] and in data set [7] was “dose-dependent antiviral effect” each time. The “antiviral efficacy compared among the tested atropopeptides” value in data set [1], in data set [2], in data set [6] and in data set [7] was “comparable antiviral efficacies” throughout. Moreover, in data set [3], the “cytotoxicity toward MDCK II cells (cell viability, ATP)” value (from here on “cytotoxicity toward MDCK II cells”) was “did not show cytotoxicity”. The “ICAM1 expression (mean fluorescence intensity)” value (from here on “ICAM1 expression”) in data set [4] was “slight reduction”. The “VCAM1 expression (mean fluorescence intensity)” value (“VCAM1 expression” for short) in data set [5] is given as “unchanged”.
Turning to “H-WYQWL-OH (also: sidechain bridge or staple (positions not given here)) [compound 3, scabrirubin CB-3, cyclic pentapeptide from S. albus/pUWL-SvaA + ScaB with C–N biaryl crosslink]”, the antiviral effect entry in data set [1], in data set [2], in data set [6] and in data set [7] was “dose-dependent antiviral effect” each time. Further, the “antiviral efficacy compared among the tested atropopeptides” value in data set [1], in data set [2], in data set [6] and in data set [7] was “slightly reduced activity” in each case. Also, in data set [3], the “cytotoxicity toward MDCK II cells” value is “did not show cytotoxicity”. In addition, the “ICAM1 expression” value in data set [4] is “significantly reduced”. In data set [5], the “VCAM1 expression” value is “significantly reduced”.
As for scabrirubin [reference compound], the antiviral effect entry in data set [1], in data set [2], in data set [6] and in data set [7] was “dose-dependent antiviral effect” each time. Moreover, the “antiviral efficacy compared among the tested atropopeptides” value in data set [1], in data set [2], in data set [6] and in data set [7] was “comparable antiviral efficacies” throughout. Besides, the “cytotoxicity toward MDCK II cells” value in data set [3] is “did not show cytotoxicity”. Also, the “ICAM1 expression” value in data set [4] is listed as “slight reduction”. For the same substance, in data set [5], the “VCAM1 expression” value is given as “slightly elevated”.
